Experimental data published in the kinase profiling compilation of Christmann-Franck et al. (2016).

Tests used:
Test in all cases: KINOMEscan competition binding
Settings in all cases: compound 10.0 µM
CDK7 (human) = CDK7 (human) (UniProt P50613)
EPHA2 (human) = EPHA2 (human) (UniProt P29317)
MKNK2 (human) = MKNK2 (human) (UniProt Q9HBH9)
ULK2 (human) = ULK2 (human) (UniProt Q8IYT8)
FER (human) = FER (human) (UniProt P16591)
ADCK4 (human) = ADCK4 (human) (UniProt Q96D53)
EPHA3 (human) = EPHA3 (human) (UniProt P29320)
EPHA3 (human), sequence (P29320 whole entry, looked up): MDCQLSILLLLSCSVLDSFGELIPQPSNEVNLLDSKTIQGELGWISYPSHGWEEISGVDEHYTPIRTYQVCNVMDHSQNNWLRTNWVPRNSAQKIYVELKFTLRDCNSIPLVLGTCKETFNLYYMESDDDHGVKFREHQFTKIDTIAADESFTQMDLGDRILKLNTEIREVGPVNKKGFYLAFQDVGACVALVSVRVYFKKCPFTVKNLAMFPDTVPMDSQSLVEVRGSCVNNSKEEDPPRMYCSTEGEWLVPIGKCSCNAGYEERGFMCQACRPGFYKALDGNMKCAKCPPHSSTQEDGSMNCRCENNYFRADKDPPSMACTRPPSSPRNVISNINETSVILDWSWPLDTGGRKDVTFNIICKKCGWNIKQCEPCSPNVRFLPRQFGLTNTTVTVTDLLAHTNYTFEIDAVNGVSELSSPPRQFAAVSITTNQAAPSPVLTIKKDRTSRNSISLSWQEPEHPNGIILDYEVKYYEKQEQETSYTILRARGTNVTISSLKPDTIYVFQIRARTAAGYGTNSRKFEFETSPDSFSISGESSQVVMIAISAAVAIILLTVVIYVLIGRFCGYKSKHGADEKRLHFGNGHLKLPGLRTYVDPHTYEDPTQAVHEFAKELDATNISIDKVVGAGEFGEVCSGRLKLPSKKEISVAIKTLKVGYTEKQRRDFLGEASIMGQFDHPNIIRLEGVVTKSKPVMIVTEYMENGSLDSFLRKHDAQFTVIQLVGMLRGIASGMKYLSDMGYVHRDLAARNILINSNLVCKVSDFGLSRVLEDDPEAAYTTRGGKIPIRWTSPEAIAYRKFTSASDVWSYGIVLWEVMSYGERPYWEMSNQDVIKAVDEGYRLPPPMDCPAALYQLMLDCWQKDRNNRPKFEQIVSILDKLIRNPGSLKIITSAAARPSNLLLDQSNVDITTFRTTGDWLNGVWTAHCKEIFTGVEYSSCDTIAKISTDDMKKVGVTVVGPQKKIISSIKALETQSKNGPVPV

EPHB1 (human) = EPHB1 (human) (UniProt P54762)
EPHB1 (human), sequence (P54762 whole entry, looked up): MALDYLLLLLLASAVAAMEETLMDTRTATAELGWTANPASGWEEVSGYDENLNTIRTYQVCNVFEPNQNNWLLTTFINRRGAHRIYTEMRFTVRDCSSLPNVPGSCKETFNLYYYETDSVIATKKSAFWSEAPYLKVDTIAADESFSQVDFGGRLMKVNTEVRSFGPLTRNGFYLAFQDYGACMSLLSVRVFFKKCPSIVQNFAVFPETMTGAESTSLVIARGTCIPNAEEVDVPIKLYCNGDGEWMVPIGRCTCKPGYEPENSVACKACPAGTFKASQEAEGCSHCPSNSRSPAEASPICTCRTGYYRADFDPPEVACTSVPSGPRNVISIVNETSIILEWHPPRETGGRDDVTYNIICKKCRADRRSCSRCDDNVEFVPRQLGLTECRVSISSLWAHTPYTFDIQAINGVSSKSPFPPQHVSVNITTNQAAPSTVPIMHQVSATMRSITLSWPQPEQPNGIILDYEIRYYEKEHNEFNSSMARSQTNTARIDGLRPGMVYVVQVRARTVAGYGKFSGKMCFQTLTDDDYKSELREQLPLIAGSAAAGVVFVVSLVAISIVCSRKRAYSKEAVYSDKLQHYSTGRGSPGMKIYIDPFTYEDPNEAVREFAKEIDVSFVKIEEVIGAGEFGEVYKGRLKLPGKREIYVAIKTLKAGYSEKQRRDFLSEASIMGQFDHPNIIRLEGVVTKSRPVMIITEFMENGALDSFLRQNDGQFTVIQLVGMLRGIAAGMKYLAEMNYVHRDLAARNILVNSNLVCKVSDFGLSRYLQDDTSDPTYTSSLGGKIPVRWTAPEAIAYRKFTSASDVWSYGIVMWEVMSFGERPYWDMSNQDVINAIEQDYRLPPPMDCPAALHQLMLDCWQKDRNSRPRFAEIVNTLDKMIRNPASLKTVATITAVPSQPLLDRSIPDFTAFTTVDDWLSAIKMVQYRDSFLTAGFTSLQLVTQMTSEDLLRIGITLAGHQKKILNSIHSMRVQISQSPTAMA

[1] = tested on: KIT (human), P10721 [V559D]
RPS6KA2 KD2 (human) = RPS6KA2 KD2 (human) (UniProt Q15349)
TNNI3K (human) = TNNI3K (human) (UniProt Q59H18)
AURKA (human) = AURKA (human) (UniProt O14965)
MST1R (human) = MST1R (human) (UniProt Q04912)
MAPK8 (human) = MAPK8 (human) (UniProt P45983)
TESK1 (human) = TESK1 (human) (UniProt Q15569)
TESK1 (human), sequence (Q15569 whole entry, looked up): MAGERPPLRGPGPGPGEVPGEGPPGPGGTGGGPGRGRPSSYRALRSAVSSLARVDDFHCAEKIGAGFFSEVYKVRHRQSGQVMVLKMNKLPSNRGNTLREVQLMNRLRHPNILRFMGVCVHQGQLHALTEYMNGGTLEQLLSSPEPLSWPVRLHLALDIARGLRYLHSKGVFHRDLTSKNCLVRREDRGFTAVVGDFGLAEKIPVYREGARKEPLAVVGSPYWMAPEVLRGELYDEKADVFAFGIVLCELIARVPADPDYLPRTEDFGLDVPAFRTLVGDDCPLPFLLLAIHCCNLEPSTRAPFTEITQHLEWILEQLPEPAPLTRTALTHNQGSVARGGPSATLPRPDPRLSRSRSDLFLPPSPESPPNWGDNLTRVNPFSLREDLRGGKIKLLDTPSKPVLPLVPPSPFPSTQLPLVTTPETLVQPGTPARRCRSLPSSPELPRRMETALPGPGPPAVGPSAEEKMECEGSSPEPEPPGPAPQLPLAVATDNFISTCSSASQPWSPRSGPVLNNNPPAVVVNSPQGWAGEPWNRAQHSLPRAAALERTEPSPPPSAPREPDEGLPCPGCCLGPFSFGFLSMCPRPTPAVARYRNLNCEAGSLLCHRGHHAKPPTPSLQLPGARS

ERBB2 (human) = ERBB2 (human) (UniProt P04626)
ACVR1B (human) = ACVR1B (human) (UniProt P36896)
CLK1 (human) = CLK1 (human) (UniProt P49759)
CLK1 (human), sequence (P49759 whole entry, looked up): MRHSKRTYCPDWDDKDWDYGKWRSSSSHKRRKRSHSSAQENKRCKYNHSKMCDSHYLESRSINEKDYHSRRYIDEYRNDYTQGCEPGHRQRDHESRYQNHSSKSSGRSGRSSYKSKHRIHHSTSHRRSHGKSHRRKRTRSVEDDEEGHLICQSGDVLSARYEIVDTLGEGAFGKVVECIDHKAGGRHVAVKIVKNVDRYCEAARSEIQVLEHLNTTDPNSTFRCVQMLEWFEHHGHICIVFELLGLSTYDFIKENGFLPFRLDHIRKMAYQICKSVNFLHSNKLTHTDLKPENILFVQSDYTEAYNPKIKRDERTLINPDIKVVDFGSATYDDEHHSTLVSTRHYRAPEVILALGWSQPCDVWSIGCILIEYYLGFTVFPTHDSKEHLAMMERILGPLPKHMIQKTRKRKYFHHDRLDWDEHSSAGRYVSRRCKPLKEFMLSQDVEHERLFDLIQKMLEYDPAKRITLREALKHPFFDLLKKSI

PDPK1 (human) = PDPK1 (human) (UniProt O15530)
FLT4 (human) = FLT4 (human) (UniProt P35916)
MAPK7 (human) = MAPK7 (human) (UniProt Q13164)
CDK16 (human) = CDK16 (human) (UniProt Q00536)
FGFR2 (human) = FGFR2 (human) (UniProt P21802)
DCLK1 (human) = DCLK1 (human) (UniProt O15075)
MUSK (human) = MUSK (human) (UniProt O15146)
PRKACB (human) = PRKACB (human) (UniProt P22694)
PRKD3 (human) = PRKD3 (human) (UniProt O94806)
ULK1 (human) = ULK1 (human) (UniProt O75385)
CSNK1E (human) = CSNK1E (human) (UniProt P49674)
PLK3 (human) = PLK3 (human) (UniProt Q9H4B4)
DDR2 (human) = DDR2 (human) (UniProt Q16832)
DDR2 (human), sequence (Q16832 whole entry, looked up): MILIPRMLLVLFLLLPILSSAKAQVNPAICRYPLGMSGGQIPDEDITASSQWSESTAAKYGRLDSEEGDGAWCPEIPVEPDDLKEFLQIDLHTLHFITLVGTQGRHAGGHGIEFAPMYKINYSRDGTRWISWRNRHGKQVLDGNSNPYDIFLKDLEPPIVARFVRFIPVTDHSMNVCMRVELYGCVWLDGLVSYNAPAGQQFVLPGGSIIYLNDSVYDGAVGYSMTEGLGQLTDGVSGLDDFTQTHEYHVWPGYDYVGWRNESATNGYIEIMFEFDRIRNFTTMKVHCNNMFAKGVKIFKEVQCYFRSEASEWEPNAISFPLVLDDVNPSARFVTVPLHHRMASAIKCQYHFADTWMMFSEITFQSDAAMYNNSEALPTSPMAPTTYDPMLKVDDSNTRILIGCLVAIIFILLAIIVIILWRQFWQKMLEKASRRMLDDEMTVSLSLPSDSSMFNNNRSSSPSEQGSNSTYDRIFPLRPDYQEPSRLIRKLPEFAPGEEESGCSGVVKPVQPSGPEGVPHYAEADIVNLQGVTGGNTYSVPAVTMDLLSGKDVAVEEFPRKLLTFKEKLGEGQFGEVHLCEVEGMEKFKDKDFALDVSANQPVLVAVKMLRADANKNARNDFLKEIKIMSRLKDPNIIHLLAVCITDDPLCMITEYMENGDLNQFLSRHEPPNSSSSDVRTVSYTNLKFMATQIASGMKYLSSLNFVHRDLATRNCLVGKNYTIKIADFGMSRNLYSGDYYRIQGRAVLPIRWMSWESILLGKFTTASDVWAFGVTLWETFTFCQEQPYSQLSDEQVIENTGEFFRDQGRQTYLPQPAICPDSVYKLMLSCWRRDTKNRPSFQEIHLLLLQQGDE

SIK2 (human) = SIK2 (human) (UniProt Q9H0K1)
MAP4K2 (human) = MAP4K2 (human) (UniProt Q12851)
STK17A (human) = STK17A (human) (UniProt Q9UEE5)
STK17A (human), sequence (Q9UEE5 whole entry, looked up): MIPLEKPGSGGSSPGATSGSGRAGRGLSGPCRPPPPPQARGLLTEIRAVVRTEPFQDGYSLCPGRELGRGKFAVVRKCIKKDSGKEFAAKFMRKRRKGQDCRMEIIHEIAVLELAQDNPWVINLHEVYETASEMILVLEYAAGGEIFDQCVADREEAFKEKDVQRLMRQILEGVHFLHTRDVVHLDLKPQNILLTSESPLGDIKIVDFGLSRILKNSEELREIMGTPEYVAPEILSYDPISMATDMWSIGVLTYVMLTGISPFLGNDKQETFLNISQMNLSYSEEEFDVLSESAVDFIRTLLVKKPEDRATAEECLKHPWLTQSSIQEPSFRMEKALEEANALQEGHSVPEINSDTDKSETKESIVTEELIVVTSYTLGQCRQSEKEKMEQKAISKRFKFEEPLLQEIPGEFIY

STK16 (human) = STK16 (human) (UniProt O75716)
RPS6KA1 KD2 (human) = RPS6KA1 KD2 (human) (UniProt Q15418)
WEE2 (human) = WEE2 (human) (UniProt P0C1S8)
CLK3 (human) = CLK3 (human) (UniProt P49761)
SGK110 (human) = SGK110 (human) (UniProt P0C264)
PRKAA2 (human) = PRKAA2 (human) (UniProt P54646)
PRKAA2 (human), sequence (P54646 whole entry, looked up): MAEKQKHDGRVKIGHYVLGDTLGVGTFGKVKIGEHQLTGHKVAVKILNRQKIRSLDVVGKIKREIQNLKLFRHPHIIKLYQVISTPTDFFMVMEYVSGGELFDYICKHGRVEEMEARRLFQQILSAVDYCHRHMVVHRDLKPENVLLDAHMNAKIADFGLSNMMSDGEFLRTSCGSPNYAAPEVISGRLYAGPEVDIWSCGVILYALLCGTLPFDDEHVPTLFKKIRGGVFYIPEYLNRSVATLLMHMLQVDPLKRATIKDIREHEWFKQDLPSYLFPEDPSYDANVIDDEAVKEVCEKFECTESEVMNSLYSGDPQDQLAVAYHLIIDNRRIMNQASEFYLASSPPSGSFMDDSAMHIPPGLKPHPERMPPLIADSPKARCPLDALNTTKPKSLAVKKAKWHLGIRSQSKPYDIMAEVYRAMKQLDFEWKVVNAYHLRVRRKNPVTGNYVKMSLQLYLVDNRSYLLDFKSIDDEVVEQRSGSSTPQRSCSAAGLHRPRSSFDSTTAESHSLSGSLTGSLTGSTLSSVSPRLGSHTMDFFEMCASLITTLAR

Structure (SMILES) | kinase still bound, per cent of control (CDK7 (human)) [%] | kinase still bound, per cent of control (EPHA2 (human)) [%] | kinase still bound, per cent of control (MKNK2 (human)) [%] | kinase still bound, per cent of control (ULK2 (human)) [%] | kinase still bound, per cent of control (FER (human)) [%] | kinase still bound, per cent of control (ADCK4 (human)) [%] | kinase still bound, per cent of control (EPHA3 (human)) [%] | kinase still bound, per cent of control (EPHB1 (human)) [%] | kinase still bound, per cent of control [1] [%] | kinase still bound, per cent of control (RPS6KA2 KD2 (human)) [%] | kinase still bound, per cent of control (TNNI3K (human)) [%] | kinase still bound, per cent of control (AURKA (human)) [%] | kinase still bound, per cent of control (MST1R (human)) [%] | kinase still bound, per cent of control (MAPK8 (human)) [%] | kinase still bound, per cent of control (TESK1 (human)) [%] | kinase still bound, per cent of control (ERBB2 (human)) [%] | kinase still bound, per cent of control (ACVR1B (human)) [%] | kinase still bound, per cent of control (CLK1 (human)) [%] | kinase still bound, per cent of control (PDPK1 (human)) [%] | kinase still bound, per cent of control (FLT4 (human)) [%] | other results
O=C(NOC[C@H](O)CO)c1ccc(F)c(F)c1Nc1ccc(I)cc1F | 83 | 88 | 100 | 97 | 100 | 100 | 100 | 100 | 74 | 92 | 51 | 100 | 78 | 92 | 98 | 100 | 100 | 95 | 71 | 94 | kinase still bound, per cent of control (MAPK7 (human)): 88%; kinase still bound, per cent of control (CDK16 (human)): 100%; kinase still bound, per cent of control (FGFR2 (human)): 100%; kinase still bound, per cent of control (DCLK1 (human)): 100%; kinase still bound, per cent of control (MUSK (human)): 68%; kinase still bound, per cent of control (PRKACB (human)): 98%; kinase still bound, per cent of control (PRKD3 (human)): 70%; kinase still bound, per cent of control (ULK1 (human)): 100%; kinase still bound, per cent of control (CSNK1E (human)): 100%; kinase still bound, per cent of control (PLK3 (human)): 100%; kinase still bound, per cent of control (DDR2 (human)): 100%; kinase still bound, per cent of control (SIK2 (human)): 92%; kinase still bound, per cent of control (MAP4K2 (human)): 100%; kinase still bound, per cent of control (STK17A (human)): 100%; kinase still bound, per cent of control (STK16 (human)): 99%; kinase still bound, per cent of control (RPS6KA1 KD2 (human)): 84%; kinase still bound, per cent of control (WEE2 (human)): 77%; kinase still bound, per cent of control (CLK3 (human)): 100%; kinase still bound, per cent of control (SGK110 (human)): 100%; kinase still bound, per cent of control (PRKAA2 (human)): 97%
COc1cc(C(=O)NC2CCN(C)CC2)ccc1Nc1ncc2c(n1)N(C1CCCC1)CCC(=O)N2C(C)C | 100 | 100 | 100 | 100 | 100 | 100 | 100 | 100 | 100 | 100 | 100 | 100 | 100 | 100 | 100 | 100 | 100 | 100 | 100 | 0 | kinase still bound, per cent of control (MAPK7 (human)): 100%; kinase still bound, per cent of control (CDK16 (human)): 100%; kinase still bound, per cent of control (FGFR2 (human)): 100%; kinase still bound, per cent of control (DCLK1 (human)): 100%; kinase still bound, per cent of control (MUSK (human)): 100%; kinase still bound, per cent of control (PRKACB (human)): 100%; kinase still bound, per cent of control (PRKD3 (human)): 100%; kinase still bound, per cent of control (ULK1 (human)): 100%; kinase still bound, per cent of control (CSNK1E (human)): 100%; kinase still bound, per cent of control (PLK3 (human)): 100%; kinase still bound, per cent of control (DDR2 (human)): 100%; kinase still bound, per cent of control (SIK2 (human)): 100%; kinase still bound, per cent of control (MAP4K2 (human)): 100%; kinase still bound, per cent of control (STK17A (human)): 100%; kinase still bound, per cent of control (STK16 (human)): 100%; kinase still bound, per cent of control (RPS6KA1 KD2 (human)): 100%; kinase still bound, per cent of control (WEE2 (human)): 100%; kinase still bound, per cent of control (CLK3 (human)): 100%; kinase still bound, per cent of control (SGK110 (human)): 100%; kinase still bound, per cent of control (PRKAA2 (human)): 100%
